Source: patent publication US7261876B2, “Multivalent constructs for therapeutic and diagnostic applications” (Bracco International BV, priority 2002, dated 2007)
Like-named read-outs stand apart in the source and are kept apart here. Positions of bridges follow the written chain, without caps; N, C: chain ends. Non-standard residues stand in square brackets, D forms with d. Residues, ends and D or L forms follow the SMILES beside them. Lys(ivDde) = CC(C)CC(NCCCC[C@H](N)C(=O)O)=C1C(=O)CC(C)(C)CC1=O

Molecular target: T1, KDR (Homo sapiens, UniProt P35968)
T1 construct: host or cells: HUVEC
Experiment: VEGF-induced KDR receptor activation (phosphorylation) assay in HUVECs
Format: cell-based
Settings: for inhibition at 10 µM: HUVEC, read-out: inhibition of VEGF-induced KDR phosphorylation
Source text: Human umbilical vein endothelial cells (HUVECs) (Biowhittaker Cat No. CC-2519) were obtained frozen on dry ice and stored in liquid nitrogen until thawing. These cells were thawed, passaged, and maintained as described by the manufacturer in EGM-MV medium (Biowhittaker Cat No. CC-3125). Cells seeded into 100 mm dishes were allowed to become confluent, then cultured overnight in basal EBM medium lacking serum (Biowhittaker Cat No. CC-3121). The next morning, the medium in the dishes was replaced with 10 mL fresh EBM medium at 37° C. containing either no additive (negative control), 5 ng/mL VEGF (Calbiochem Cat No. 676472 or Peprotech Cat No. 100-20) (positive control), or 5 ng/mL VEGF plus the indicated concentration of the KDR-binding peptide (prepared as described above). In some cases, a neutralizing anti-KDR antibody (Cat No. AF357, R&D Systems) was used as a positive control inhibitor of activation. In such cases, the antibody was pre-incubated with the test cells for 30 min at 37° C. prior to the addition of fresh medium containing both VEGF and the antibody. After incubating the dishes 5 min in a 37° C. tissue culture incubator they were washed three times with ice-cold Dulbecco's phosphate buffered saline (D-PBS) containing calcium and magnesium and placed on ice without removing the last 10 mL of D-PBS. The first dish of a set was drained and 0.5 mL of Triton lysis buffer was added (20 mM Tris base pH 8.0, 137 mM NaCl, 10% glycerol, 1% Triton X-100, 2 mM EDTA (ethylenediaminetetraacetic acid), 1 mM PMSF (phenylmethylsulfonylfluoride), 1 mM sodium orthovanadate, 100 mM NaF, 50 mM sodium pyrophosphate, 10 μg/mL leupeptin, 10 μg/mL aprotinin). The cells were quickly scraped into the lysis buffer using a cell scraper (Falcon, Cat No. 353087), dispersed by pipeting up and down briefly, and the resulting lysate was transferred to the second drained dish of the pair. Another 0.5 mL of lysis buffer was used to rinse out the first dish then transferred to the second dish, which was then also scraped and dispersed. The pooled lysate from the two dishes was transferred to a 1.5 mL Eppindorf tube. The above procedure was repeated for each of the controls and test samples (KDR-binding peptides), one at a time. The lysates were stored on ice until all the samples had been processed. At this point samples were either stored at −70° C. or processed to the end of the assay without interruption.
The lysates, either freshly prepared or frozen and thawed, were precleared by adding 20 μL of protein A-sepharose beads (Sigma 3391, preswollen in D-PBS), washed three times with a large excess of D-PBS, reconstituted with 6 mL D-PBS to generate a 50% slurry) and rocked at 4° C. for 30 min. The beads were pelleted by centrifugation for 2 min in a Picofuge (Stratgene, Cat No. 400550) at 2000×g and the supernatants transferred to new 1.5 mL tubes. 20 μg of anti-Flk-1 antibody (Santa Cruz Biotechnology, Cat No. sc-504) was added to each tube, and the tubes were incubated overnight (16–18 h) at 4° C. on a rotator to immunoprecipitate KDR. The next day 40 μL of protein A-sepharose beads were added to the tubes, which were then incubated at 4° C. for 1 h on a rotator. The beads in each tube were subsequently washed three times by centrifuging for 2 min in a Picofuge, discarding the supernatant, and dispersing the beads in 1 mL freshly added TBST buffer (20 mM Tris base pH 7.5, 137 mM NaCl, and 0.1% Tween 20). After centrifuging and removing the liquid from the last wash, 40 μL of Laemmli SDS-PAGE sample buffer (Bio-Rad, Cat No. 161-0737) was added to each tube and the tubes were capped and boiled for 5 min. After cooling, the beads in each tube were pelleted by centrifuging and the supernatants containing the immunoprecipitated KDR were transferred to new tubes and used immediately or frozen and stored at −70° C. for later analysis.
Detection of phosphorylated KDR as well as total KDR in the immunoprecipitates was carried out by immunoblot analysis. […]

T1 sequence (P35968 20-1356): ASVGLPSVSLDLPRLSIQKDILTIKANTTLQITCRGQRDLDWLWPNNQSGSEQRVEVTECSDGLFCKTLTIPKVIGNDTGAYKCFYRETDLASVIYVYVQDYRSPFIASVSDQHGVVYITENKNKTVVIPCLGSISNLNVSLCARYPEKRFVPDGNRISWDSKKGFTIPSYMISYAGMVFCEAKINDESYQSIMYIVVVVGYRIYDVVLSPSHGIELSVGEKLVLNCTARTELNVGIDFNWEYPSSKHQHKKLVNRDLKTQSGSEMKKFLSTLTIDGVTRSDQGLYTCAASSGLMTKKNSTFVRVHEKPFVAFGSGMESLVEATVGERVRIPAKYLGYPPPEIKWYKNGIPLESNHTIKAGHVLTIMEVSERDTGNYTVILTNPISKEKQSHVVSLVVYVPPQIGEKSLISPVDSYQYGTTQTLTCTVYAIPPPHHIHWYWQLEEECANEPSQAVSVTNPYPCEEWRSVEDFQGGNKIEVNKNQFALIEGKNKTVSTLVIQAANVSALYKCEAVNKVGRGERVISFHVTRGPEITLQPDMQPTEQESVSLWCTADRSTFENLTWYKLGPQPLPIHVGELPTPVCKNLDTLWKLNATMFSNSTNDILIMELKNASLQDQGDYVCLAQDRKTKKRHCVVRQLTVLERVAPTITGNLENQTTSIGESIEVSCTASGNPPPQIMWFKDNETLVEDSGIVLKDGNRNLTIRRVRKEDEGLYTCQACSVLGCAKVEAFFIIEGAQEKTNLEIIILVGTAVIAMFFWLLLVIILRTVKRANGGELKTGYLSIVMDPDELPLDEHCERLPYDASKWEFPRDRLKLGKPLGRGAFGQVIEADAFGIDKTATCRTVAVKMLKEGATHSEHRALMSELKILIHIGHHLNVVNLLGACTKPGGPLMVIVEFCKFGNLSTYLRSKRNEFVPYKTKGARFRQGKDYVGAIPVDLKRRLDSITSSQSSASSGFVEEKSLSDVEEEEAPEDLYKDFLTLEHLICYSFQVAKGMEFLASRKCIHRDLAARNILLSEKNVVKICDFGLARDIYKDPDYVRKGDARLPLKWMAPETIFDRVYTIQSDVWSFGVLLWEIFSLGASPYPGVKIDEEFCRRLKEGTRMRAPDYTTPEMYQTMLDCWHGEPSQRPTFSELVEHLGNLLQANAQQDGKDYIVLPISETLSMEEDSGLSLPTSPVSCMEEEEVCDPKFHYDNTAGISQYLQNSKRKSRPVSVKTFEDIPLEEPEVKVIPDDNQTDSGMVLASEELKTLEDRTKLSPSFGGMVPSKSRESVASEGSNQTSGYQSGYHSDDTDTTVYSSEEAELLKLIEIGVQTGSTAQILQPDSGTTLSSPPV

CC[C@H](C)[C@@H]1NC(=O)CNC(=O)[C@H](CC(=O)O)NC(=O)[C@@H]2CCCN2C(=O)[C@H](Cc2c[nH]cn2)NC(=O)[C@H](Cc2ccc(O)cc2)NC(=O)[C@@H](NC(=O)[C@H](CCC(=O)O)NC(=O)[C@@H](NC(=O)[C@H](Cc2c[nH]c3ccccc23)NC(=O)CNC(=O)[C@H](C)NC(C)=O)[C@@H](C)CC)CSSC[C@@H](C(=O)N[C@@H](Cc2ccc(O)cc2)C(=O)N[C@@H](Cc2c[nH]cn2)C(=O)N[C@@H](Cc2ccccc2)C(=O)NCC(=O)N[C@H](C(=O)NCC(=O)NCC(=O)NCC(=O)N[C@@H](CCCCN)C(N)=O)[C@@H](C)O)NC1=O [P2-D] (Ac-AGWIECYHPDGICYHFGTGGGK-NH2; disulfide 6-13)
inhibition at 10 µM: ≥ 50%

CC(=O)N[C@@H](C)C(=O)NCC(=O)N[C@@H](Cc1c[nH]c2ccccc12)C(=O)N[C@@H](CC(C)C)C(=O)N[C@@H](CCC(=O)O)C(=O)N[C@H]1CSSC[C@@H](C(=O)N[C@@H](Cc2ccc(O)cc2)C(=O)N[C@@H](CC(N)=O)C(=O)N[C@@H](Cc2ccccc2)C(=O)NCC(=O)N[C@H](C(=O)NCC(=O)NCC(=O)NCC(=O)N[C@@H](CCCCN)C(N)=O)[C@@H](C)O)NC(=O)[C@H](Cc2c[nH]cn2)NC(=O)CNC(=O)[C@H](Cc2ccccc2)NC(=O)[C@H](CCC(=O)O)NC(=O)[C@H](C)NC(=O)[C@H](Cc2ccc(O)cc2)NC1=O [P3-D] (Ac-AGWLECYAEFGHCYNFGTGGGK-NH2; disulfide 6-13)
inhibition at 10 µM (10 μM): ≥ 50%

CSCC[C@@H]1NC(=O)[C@H]([C@@H](C)O)NC(=O)[C@@H](NC(=O)[C@@H](NC(=O)[C@H](CC(=O)O)NC(=O)[C@@H]2CCCN2C(=O)[C@H](CC(=O)O)NC(=O)CNC(C)=O)[C@@H](C)O)CSSC[C@@H](C(=O)N[C@@H](Cc2ccccc2)C(=O)N2CCC[C@H]2C(=O)N[C@@H](C)C(=O)N[C@@H](CC(=O)O)C(=O)N2CCC[C@H]2C(=O)NCC(=O)NCC(=O)NCC(=O)N[C@@H](CCCCN)C(N)=O)NC(=O)[C@H](Cc2ccc(O)cc2)NC(=O)[C@H](Cc2c[nH]c3ccccc23)NC(=O)[C@H](CCCNC(=N)N)NC(=O)CNC(=O)[C@H](CO)NC(=O)[C@H](CC(=O)O)NC(=O)CNC(=O)[C@H](Cc2c[nH]c3ccccc23)NC1=O [P8-D] (Ac-GDPDTCTMWGDSGRWYCFPADPGGGK-NH2; disulfide 6-17)
inhibition at 10 µM: ≥ 50%

CC[C@H](C)[C@@H]1NC(=O)[C@H](Cc2c[nH]c3ccccc23)NC(=O)[C@H](CCC(N)=O)NC(=O)CNC(=O)[C@H](CC(N)=O)NC(=O)[C@H](Cc2c[nH]cn2)NC(=O)[C@H](CC(C)C)NC(=O)[C@H](Cc2ccc(O)cc2)NC(=O)[C@@H](NC(=O)[C@H](Cc2c[nH]cn2)NC(=O)[C@H](Cc2c[nH]cn2)NC(=O)[C@H](CC(=O)O)NC(=O)[C@H](CO)NC(=O)CNC(C)=O)CSSC[C@@H](C(=O)N[C@@H](Cc2ccc(O)cc2)C(=O)N2CCC[C@H]2C(=O)N[C@@H](Cc2ccccc2)C(=O)N[C@@H](C)C(=O)N2CCC[C@H]2C(=O)NCC(=O)NCC(=O)NCC(=O)N[C@@H](CCCCN)C(N)=O)NC1=O [P14-D] (Ac-GSDHHCYLHNGQWICYPFAPGGGK-NH2; disulfide 6-15)
inhibition of KDR activation (10 μM): did not produce significant inhibition of KDR activation

CC(=O)NCC(=O)N[C@@H](CC(=O)O)C(=O)N[C@@H](Cc1ccc(O)cc1)C(=O)N1CCC[C@H]1C(=O)N[C@@H](Cc1c[nH]c2ccccc12)C(=O)N[C@H]1CSSC[C@@H](C(=O)N[C@H](C(=O)N2CCC[C@H]2C(=O)N[C@@H](Cc2c[nH]c3ccccc23)C(=O)N[C@@H](CC(=O)O)C(=O)N2CCC[C@H]2C(=O)NCC(=O)NCC(=O)NCC(=O)N[C@@H](CCCCN)C(N)=O)C(C)C)NC(=O)[C@H](Cc2ccccc2)NC(=O)[C@H](CCCNC(=N)N)NC(=O)[C@H]([C@@H](C)O)NC(=O)[C@H](C(C)C)NC(=O)[C@H](CO)NC(=O)[C@H](CC(=O)O)NC(=O)[C@H](CO)NC(=O)[C@H](CC(C)C)NC(=O)[C@H](CCC(=O)O)NC(=O)[C@H](Cc2c[nH]cn2)NC1=O [P15-D] (Ac-GDYPWCHELSDSVTRFCVPWDPGGGK-NH2; disulfide 6-17)
inhibition of KDR activation (10 μM): did not produce significant inhibition of KDR activation

CSCC[C@H](NC(=O)[C@H](Cc1c[nH]cn1)NC(=O)[C@H](CC(=O)O)NC(=O)[C@H](CC(=O)O)NC(=O)CNC(C)=O)C(=O)N[C@H]1CSSC[C@@H](C(=O)N[C@@H](CCSC)C(=O)N[C@@H](Cc2ccc(O)cc2)C(=O)N[C@@H](Cc2c[nH]c3ccccc23)C(=O)N[C@@H](CC(=O)O)C(=O)N2CCC[C@H]2C(=O)NCC(=O)NCC(=O)NCC(=O)N[C@@H](CCCCN)C(N)=O)NC(=O)[C@H](Cc2ccccc2)NC(=O)[C@H](C(C)C)NC(=O)[C@H](Cc2c[nH]cn2)NC(=O)[C@H](CC(=O)O)NC(=O)[C@H](CCC(N)=O)NC(=O)[C@H](Cc2ccc(O)cc2)NC(=O)[C@H](CC(=O)O)NC(=O)[C@@H]2CCCN2C(=O)[C@H](CO)NC(=O)[C@H](CCCNC(=N)N)NC1=O [P16-D] (Ac-GDDHMCRSPDYQDHVFCMYWDPGGGK-NH2; disulfide 6-17)
inhibition of KDR activation (10 μM): did not produce significant inhibition of KDR activation

CC(=O)NCC(=O)N[C@@H](CC(=O)O)C(=O)N1CCC[C@H]1C(=O)N1CCC[C@H]1C(=O)N[C@@H](CC(C)C)C(=O)N[C@H]1CSSC[C@@H](C(=O)N[C@@H](CC(N)=O)C(=O)N2CCC[C@H]2C(=O)N[C@@H](Cc2ccccc2)C(=O)N[C@@H](CC(=O)O)C(=O)N2CCC[C@H]2C(=O)NCC(=O)NCC(=O)NCC(=O)N[C@@H](CCCCN)C(N)=O)NC(=O)[C@H](Cc2c[nH]cn2)NC(=O)[C@H](Cc2c[nH]cn2)NC(=O)[C@H](Cc2c[nH]c3ccccc23)NC(=O)[C@H](CCC(=O)O)NC(=O)[C@H](CCC(N)=O)NC(=O)[C@H]([C@@H](C)O)NC(=O)CNC(=O)[C@H](C(C)C)NC(=O)[C@H](Cc2ccccc2)NC(=O)[C@H](Cc2ccc(O)cc2)NC1=O [P17-D] (Ac-GDPPLCYFVGTQEWHHCNPFDPGGGK-NH2; disulfide 6-17)
inhibition of KDR activation (10 μM): did not produce significant inhibition of KDR activation

CSCC[C@@H]1NC(=O)[C@H](CCC(=O)O)NC(=O)[C@@H](NC(=O)[C@H](Cc2c[nH]c3ccccc23)NC(=O)[C@H](CO)NC(=O)CNC(=O)[C@H](CC(=O)O)NC(=O)CNC(C)=O)CSSC[C@@H](C(=O)N[C@@H](Cc2ccccc2)C(=O)N[C@@H](CO)C(=O)N[C@@H](CC(=O)O)C(=O)N[C@@H](CC(=O)O)C(=O)N2CCC[C@H]2C(=O)NCC(=O)NCC(=O)NCC(=O)N[C@@H](CCCCN)C(N)=O)NC(=O)[C@H](CC(N)=O)NC(=O)[C@H](Cc2c[nH]c3ccccc23)NC(=O)[C@H](CCCCNC(CC(C)C)=C2C(=O)CC(C)(C)CC2=O)NC(=O)CNC(=O)[C@H](C(C)C)NC(=O)[C@H](CC(=O)O)NC(=O)[C@H](CCC(N)=O)NC(=O)[C@H](CCCNC(=N)N)NC1=O [P18-E] (Ac-GDGSWCEMRQDVG[Lys(ivDde)]WNCFSDDPGGGK-NH2; disulfide 6-17)
inhibition of KDR activation (10 μM): did not produce significant inhibition of KDR activation
